In patent US11584801B2, “Anti-5T4 antibodies and antibody-drug conjugates” (Byondis B.V., priority 2015, dated 2023):

B1: 899 chimeric (conjugate)
VH: QSVEESGGRLVTPGTPLTLTCTVSGFSLSSYTMSWVRQACGKGLEYIGIISSSDGTWYANWVKGRFTISKTSTTVDLKMTSLTTEDTATYFCARDGTGNKYYTWDRLDLWGQGTLVTVSS
VL: NIVMTQTPSPVSGAVGGTVTINCQASQSIYNELSWYQQKPGQPPKLLIYYASTLASGVSSRFKGSGSGTQFTLTISGVESVDAATYYCQQGYSSSNVDNVFGGGTEVVVK

How the values were obtained:
[1] = tested on: MDA-MB-468 cells; experiment: In vitro cytotoxicity in MDA-MB-468 cells; type: cell-based, human
[2] = tested on: PA-1 cells; experiment: In vitro cytotoxicity in PA-1 cells; type: cell-based, human
[3] = Hydrophobicity by analytical HIC; type: physicochemical
Description: For analytical HIC, 5-10 μl of sample (1 mg/ml) was injected onto a TSKgel Butyl-NPR column (4.6 mm ID×3.5 cm L, Tosoh Bioscience, cat. nr. 14947). The elution method consisted of a linear gradient from 100% Buffer A (25 mM sodium phosphate, 1.5 M ammonium sulphate, pH 6.95) to 100% of Buffer B (25 mM sodium phosphate, pH 6.95, 20% isopropanol) at 0.4 ml/min over 20 minutes. A Waters Acquity H-Class UPLC system equipped with PDA-detector and Empower software was used. Absorbance was measured at 214 nm and the retention time of ADCs was determined.

Molecule	IC50 [1] [nM]	MDA-MB-468 Efficacy [1] [%]	IC50 [2] [nM]	RTDAR0 ([3]; analytical HIC retention time of DAR0 species)	RTDAR2 ([3]; analytical HIC retention time of DAR2 species)	RTDAR2 − RTDAR0 ([3]; increase in HIC retention time upon conjugation of two linker drugs)
Rituximab-vc-seco-DUBA: non-binding control ADC	32.9	91	8.32			
B1				6.5	10.3	3.8
